The subject of assay [1] is Experimental autoimmune encephalomyelitis (EAE) in SJL/J mice. The conditions noted are these: for Mean total EAE score: 30 days from day 11, vehicle 72.38; for Mean EAE Score - Last 10 Days: vehicle 23.00.
Assay [2] has as its system S. cerevisiae. Kind of assay: Yeast chronological lifespan. Format: cell-based. Conditions: 10 μM or 100 μM, nutrient deprived state.
The target in assay [3] is T1, recombinant dSir2 (Drosophila melanogaster, UniProt Q9VK34).
T1 sequence (Q9VK34 1-823): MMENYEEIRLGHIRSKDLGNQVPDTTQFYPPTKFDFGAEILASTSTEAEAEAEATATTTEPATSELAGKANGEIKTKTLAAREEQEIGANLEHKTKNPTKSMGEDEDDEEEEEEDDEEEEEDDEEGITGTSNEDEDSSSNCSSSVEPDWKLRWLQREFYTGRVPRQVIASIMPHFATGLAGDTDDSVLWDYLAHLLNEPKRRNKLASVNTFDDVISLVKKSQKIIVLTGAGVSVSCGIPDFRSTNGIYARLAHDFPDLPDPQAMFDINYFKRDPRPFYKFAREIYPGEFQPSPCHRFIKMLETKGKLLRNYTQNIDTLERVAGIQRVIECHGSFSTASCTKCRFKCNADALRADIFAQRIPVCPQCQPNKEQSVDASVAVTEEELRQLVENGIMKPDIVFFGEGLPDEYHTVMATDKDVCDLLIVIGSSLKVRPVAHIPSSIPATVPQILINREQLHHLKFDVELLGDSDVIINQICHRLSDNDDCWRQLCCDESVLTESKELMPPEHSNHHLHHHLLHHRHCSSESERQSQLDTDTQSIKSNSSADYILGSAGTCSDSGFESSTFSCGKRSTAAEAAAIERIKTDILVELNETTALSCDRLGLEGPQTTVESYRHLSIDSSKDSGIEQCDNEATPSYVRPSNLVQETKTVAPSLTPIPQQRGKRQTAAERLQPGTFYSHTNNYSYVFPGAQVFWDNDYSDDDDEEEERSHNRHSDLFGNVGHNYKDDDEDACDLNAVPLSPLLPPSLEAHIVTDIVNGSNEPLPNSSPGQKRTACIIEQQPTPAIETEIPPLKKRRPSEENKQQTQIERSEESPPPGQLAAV
Kind of assay: dSir2 deacetylation assay. Conditions: dose-dependent; Fluor de Lys. Format: biochemical, D. melanogaster.
Method: STACs were dissolved at 10 mM in dimethylsulfoxide (DMSO) the day of the assay. […] Drosophila S2 cells were grown in Schneider media with fetal calf serum at 23-28° C., seeded at 9×10^4 cells/well, grown overnight and then exposed to 1 μM TSA, 500 μM polyphenols, and 200 μM FdL for 2 hr. Deacetylation of FdL with lysate from whole cells was determined as described^4. Unless otherwise indicated all initial rate measurements were means of three or more replicates obtained with single incubation times, at which point 5% or less of the substrate initially present was deacetylated.

Assay [4] relates to acetylated K382 of p53 in U2OS osteosarcoma cells. Kind of assay: p53 Ac-K382 Western blot after UV radiation. The class given is cell-based, human.
Method: FdL (200 μM) is added to growth media and cells incubated for 1-3 hours to allow FdL to enter the cells and the lysine-deacetylated product (deAc-FdL) to accumulate intracellularly. Cells are lysed with detergent in the presence of 1 μM TSA, 1 mM nicotinamide. […] Cells were grown adherently in DMEM/10% FCS and treated for 1 hour with 200 μM FdL, 1 μM TSA and either vehicle (0.5% final DMSO, Control) or 500 μM of the indicated compound. Intracellular accumulation of deAc-FdL was then determined as described briefly in a. […] Lysates were prepared and analyzed as above.
In assay [5] the target is T2, recombinant human SIRT1 (Homo sapiens, UniProt Q96EB6).
T2 sequence (Q96EB6 1-747): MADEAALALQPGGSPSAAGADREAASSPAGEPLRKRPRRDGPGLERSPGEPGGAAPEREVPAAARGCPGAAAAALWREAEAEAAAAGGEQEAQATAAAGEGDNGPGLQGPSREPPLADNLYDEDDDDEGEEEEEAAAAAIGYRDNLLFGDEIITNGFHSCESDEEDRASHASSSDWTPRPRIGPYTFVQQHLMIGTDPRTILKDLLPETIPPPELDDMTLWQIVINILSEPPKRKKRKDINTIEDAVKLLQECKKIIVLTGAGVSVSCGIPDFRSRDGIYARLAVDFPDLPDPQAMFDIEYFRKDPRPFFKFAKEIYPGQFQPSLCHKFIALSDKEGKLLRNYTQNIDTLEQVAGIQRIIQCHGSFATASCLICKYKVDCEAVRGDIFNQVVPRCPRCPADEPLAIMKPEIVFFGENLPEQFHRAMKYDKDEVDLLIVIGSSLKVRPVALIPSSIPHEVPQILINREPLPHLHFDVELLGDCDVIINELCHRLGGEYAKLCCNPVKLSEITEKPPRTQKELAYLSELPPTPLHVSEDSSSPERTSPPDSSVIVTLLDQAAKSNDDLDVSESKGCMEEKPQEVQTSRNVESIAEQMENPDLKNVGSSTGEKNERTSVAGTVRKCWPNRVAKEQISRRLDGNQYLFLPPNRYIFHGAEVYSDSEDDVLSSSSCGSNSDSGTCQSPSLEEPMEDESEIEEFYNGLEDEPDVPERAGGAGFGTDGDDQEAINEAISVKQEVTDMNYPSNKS
Kind of assay: SIRT1 fluorescent deacetylation assay (p53-382 acetylated peptide). The class given is biochemical.

The mark [6] stands for this setting: 25 μM NAD+, 25 μM p53-382 acetylated peptide.

Structures are written as SMILES. Where two headings read alike, the source gives them in different places. A value given as a limit tells only on which side of the number the result lay.

What is called Km is the concentration of substrate that gives half-maximal velocity. Regarding `Oc1ccc(/C=C/c2cc(O)cc(O)c2)cc1` [Resveratrol, 3,5,4′-Trihydroxy-trans-stilbene], the clinical course result in assay [1] (high dose resveratrol 400 mg/kg/day) was “not different from controls”. Further, the “peak and overall disease level” value in assay [1] (low dose resveratrol 200 mg/kg/day) is listed as “slightly higher than controls”. In addition, the “Mean total EAE score” value in assay [1] (resveratrol 200 mg/kg/day IP) is on record as 94.00; in assay [1] (resveratrol 400 mg/kg/day IP) it was 73.00. Moreover, the “Mean EAE Score - Last 10 Days” value worked out at 28.63 in assay [1] (resveratrol 200 mg/kg/day IP) and 21.88 in assay [1] (resveratrol 400 mg/kg/day IP). Moreover, in assay [2], the chronological lifespan result is “failed to extend chronological lifespan”. For the same molecule, in assay [3], the “stimulated deacetylation (maximum)” value is given as at most 2.4 fold. The “level of Ac-K382 of p53” value in assay [4] (0.5 μM resveratrol, 4 hours pre-treatment, UV) is listed as “marked decrease in the level of Ac-K382”; in assay [4] (>50 μM resveratrol) it was “the effect was reversed”. Further, the “apparent Km for NAD+ and acetylated substrate in presence of nicotinamide” value in assay [5] (5 μM resveratrol, 50 μM nicotinamide) is “raised”. In addition, the “concentration at which the activating effect doubled the rate” value in assay [5] (setting [6]) is about 11 µM. For the same molecule, the “concentration at which the activating effect was essentially saturated” value in assay [5] (setting [6]) was 100 µM. Further, in assay [5] (25 μM NAD+, 25 μM p53-382 acetylated peptide, compounds at 100 μM), the “SIRT1 stimulating activity (in words)” value was “most active compound overall”. Besides, the “effect on the two Vmax determinations” value in assay [5] (100 μM resveratrol) was “no significant effect”. Also, the “lowering of Km for NAD+” value in assay [5] (100 μM resveratrol, 1 mM acetylated peptide) is reported as “over 5 fold”. Also, the “Vmax (+resveratrol), NAD+ varied” value in assay [5] (100 μM resveratrol, 1 mM p53-382 acetylated peptide) was determined as 1749 AFU/min. In addition, the “Vmax (+resveratrol), acetylated peptide varied” value in assay [5] (100 μM resveratrol, 3 mM NAD+) came to 926 AFU/min. The “decrease of acetylated peptide Km” value in assay [5] (100 μM resveratrol, 3 mM NAD+) is given as 35 fold. Also, in assay [5] (20 and 100 μM resveratrol, 50 μM nicotinamide), the “Km for NAD+ and acetylated peptide in presence of nicotinamide” value was “lowers the Km for both NAD^+ and acetylated peptide”. For the same molecule, the Km in assay [5] (read-out: Km for NAD+ (+resveratrol), 100 μM resveratrol, 1 mM p53-382 acetylated peptide) came to 101 µM; in assay [5] (read-out: Km for p53-382 acetylated peptide (+resveratrol), 100 μM resveratrol, 3 mM NAD+), 1.8 µM.

Values taken from patent US20060276393A1, “Novel compositions for preventing and treating neurodegenerative and blood coagulation disorders” (Sirtris Pharmaceuticals, Inc., priority 2005, published 2006).
